Results on 39 compounds are retold here after patent US20040259244A1, “Methods, compositions, and growth and differentiation factors for insulin-producing cells” (priority 2002, published 2004).

Where two headings read alike, the source gives them in different places. Square brackets hold non-standard residues; d marks the D form. Ends that are not written are not given here. sY = N[C@@H](Cc1ccc(OS(=O)(=O)O)cc1)C(=O)O

The test system of this assay is conversion of stem cells into insulin producing cells. Type of assay: cell-based.
The mark [1] stands for this setting: statistical analysis of insulin content of supernatants, 3 donors, combinatorial array in alginate.

As to `CC[C@H](C)[C@@H]1NC(=O)[C@H](CCCNC(=N)N)NC(=O)[C@H](CC(=O)O)NC(=O)[C@H](CCSC)NC(=O)[C@H](CCCNC(=N)N)NC(=O)CNC(=O)CNC(=O)[C@H](Cc2ccccc2)NC(=O)[C@@H](NC(=O)[C@H](CO)NC(=O)[C@H](CO)NC(=O)[C@H](CCCNC(=N)N)NC(=O)[C@H](CCCNC(=N)N)NC(=O)[C@H](CC(C)C)NC(=O)[C@@H](N)CO)CSSC[C@@H](C(=O)N[C@@H](CC(N)=O)C(=O)N[C@@H](CO)C(=O)N[C@@H](Cc2ccccc2)C(=O)N[C@@H](CCCNC(=N)N)C(=O)N[C@@H](Cc2ccc(O)cc2)C(=O)O)NC(=O)CNC(=O)[C@H](CC(C)C)NC(=O)CNC(=O)[C@H](CO)NC(=O)[C@H](CCC(N)=O)NC(=O)[C@H](C)NC(=O)CNC1=O` [ANP], the “effect on the conversion of stem cells into insulin producing cells” value (“effect on the conversion” for short) under setting [1] was “potential negative effect”.

Consider `C[C@]12C[C@H](O)[C@H]3[C@@H](CCC4=CC(=O)CC[C@@]43C)[C@@H]1CC[C@@H]2C(=O)CO` [Corticosterone], for which the “effect on the conversion” value under setting [1] is “potential positive effect”.

For the compound `CCCCCC(=O)c1c(O)c(Cl)c(OC)c(Cl)c1O` [DIF-1], under setting [1], the “effect on the conversion” value is “potential negative effect”.

In the case of `CN(C)C=O` [DMF, n-n-dimethylformamide], under setting [1], the “effect on the conversion” value is “potential positive effect”.

As to `C[S+](C)[O-]` [DMSO, dimethyl sulfoxide], under setting [1], the “effect on the conversion” value is recorded as “potential positive effect”.

As to `NC(=O)c1cccnc1` [Nictotinamide, Nicotinamide], the “effect on the conversion” value under setting [1] is reported as “potential positive effect”.

As to `CC(=O)[C@H]1CC[C@H]2[C@@H]3CCC4=CC(=O)CC[C@]4(C)[C@H]3CC[C@]12C` [Progesterone], the “effect on the conversion” value under setting [1] is listed as “potential negative effect”.

In the case of `NCCCCN` [Putrescine], the “effect on the conversion” value under setting [1] is recorded as “potential negative effect”.

Take `N[C@@H](Cc1cc(I)c(Oc2ccc(O)c(I)c2)c(I)c1)C(=O)O` [T3, Triiodothyronine]: the “effect on the conversion” value under setting [1] is given as “potential negative effect”.

As to `Cc1c(C)c2c(c(C)c1O)CCC(C)(C(=O)O)O2` (stereo not drawn) [Trolox], the “effect on the conversion” value under setting [1] is “potential negative effect”.

Regarding `CCCC(=O)[O-].[Na+]` [n Butyric Acid], the “effect on the conversion” value under setting [1] is on record as “potential negative effect”.

On to “CCK8 amide: Cholecystokinin (CCK8-amide) (DYMGWMDF-NH2; ends and bridges not checked; UniProt P06307 96-103, looked up)”, for which the “effect on the conversion” value under setting [1] is given as “potential negative effect”.

With “CCK8 sulfated: Cholecystokinin octapeptide, sulfated (D[sY]MGWMDF-NH2; ends and bridges not checked; UniProt P06307 96-103, looked up)”, the “effect on the conversion” value under setting [1] is given as “potential positive effect”.

Consider “CNP: A 22-amino acid peptide that is a member of the natriuretic peptide family (GLSKGCFGLKLDRIGSMSGLGC; ends and bridges not checked; cysteine pairing not given here; UniProt P23582 105-126, looked up)”, for which, under setting [1], the “effect on the conversion” value is reported as “potential positive effect”.

Caerulein: the “effect on the conversion” value under setting [1] is recorded as “potential positive effect”.

In the case of Cholera Toxin B Subunit, the “effect on the conversion” value is on record as “potential positive effect”.

On to “EGF: epidermal growth factor (NSDSECPLSHDGYCLHDGVCMYIEALDKYACNCVVGYIGERCQYRDLKWWELR; UniProt P01133 971-1023, looked up)”, for which the “effect on the conversion” value under setting [1] is on record as “potential positive effect”.

In the case of “Endothelin 1: polypeptide consisting of 21 amino acid residues (CSCSSLMDKECVYFCHLDIIW; ends and bridges not checked; cysteine pairing not given here; UniProt P05305 53-73, looked up)”, the “effect on the conversion” value under setting [1] is on record as “potential negative effect”.

“Exendin 4: a long acting analog of GLP-1”: the “effect on the conversion” value under setting [1] is “potential positive effect”.

FGF-1: FGF acidic: the “effect on the conversion” value under setting [1] was “potential positive effect”.

Regarding “FGF-2: fibroblast growth factor 2 (FGF-basic)”, the “effect on the conversion” value under setting [1] is reported as “potential negative effect”.

GH: growth hormone: under setting [1], the “effect on the conversion” value is “potential negative effect”.

Take “GLP-1: Glucagon like-peptide 1, (7-36) amide, human (HAEGTFTSDVSSYLEGQAAKEFIAWLVKGR-NH2; UniProt P01275 98-127, looked up)”: under setting [1], the “effect on the conversion” value is on record as “potential negative effect”.

Consider “GRP: Gastrin Releasing Peptide (VPLPAGGGTVLTKMYPRGNHWAVGHLM; ends and bridges not checked; UniProt P07492 24-50, looked up)”, for which the “effect on the conversion” value under setting [1] is “potential positive effect”.

Consider HGF: hepatocyte growth factor, for which the “effect on the conversion” value under setting [1] is “potential negative effect”.

Take IGF-1: Insulin-like growth factor-I: under setting [1], the “effect on the conversion” value is “potential positive effect”.

As to IGF-2: Insulin-like growth factor 2, the “effect on the conversion” value under setting [1] is “potential positive effect”.

Take Insulin: Insulin as medium supplement: the “effect on the conversion” value under setting [1] was “potential positive effect”.

For the compound LIF: leukemia inhibitory factor, human, the “effect on the conversion” value under setting [1] was “potential negative effect”.

On to Laminin, for which the “effect on the conversion” value under setting [1] is “potential positive effect”.

“Leu-Enkephalin: Natural opiate pentapeptide (YGGFL) (Leu-enkephalin; UniProt P01210 230-234, looked up)”: the “effect on the conversion” value under setting [1] was “potential positive effect”.

For Met-Enkephalin, the “effect on the conversion” value under setting [1] is on record as “potential positive effect”.

With NGF beta: Nerve growth factor, the “effect on the conversion” value under setting [1] is recorded as “potential positive effect”.

As for “Substance P: neuropeptide, full length (RPKPQQFFGLM; ends and bridges not checked; UniProt P20366 58-68, looked up)”, the “effect on the conversion” value under setting [1] is “potential positive effect”.

Regarding “TGF alpha: Transforming growth factor alpha”, under setting [1], the “effect on the conversion” value was “potential negative effect”.

Turning to “TGF beta 1: Transforming growth factor beta 1”, the “effect on the conversion” value under setting [1] is given as “potential negative effect”.

For “Transferrin: a beta globulin in blood plasma capable of combining with ferric ions”, the “effect on the conversion” value under setting [1] is recorded as “potential positive effect”.

Turning to “VIP: Vasoactive Intestinal Peptide (HSDAVFTDNYTRLRKQMAVKKYLNSILN; ends and bridges not checked; UniProt P01282 125-152, looked up)”, the “effect on the conversion” value under setting [1] is “potential positive effect”.

Consider vEGF, for which the “effect on the conversion” value under setting [1] is reported as “potential positive effect”.
